Experimental data reported in PubChem BioAssay (NCI).
Values joined by “and” are separate entries in the source; they are usually repeats but may differ in a detail not shown here. Identical values can stand only once.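 Method: 48-hour compound exposure of cells in 96-well plates, five concentrations, linear interpolation of endpoints. Here, GI50 denotes the concentration required for 50% inhibition of growth. TGI: total growth inhibition.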

Experiments:
Experiment in all cases: inhibition of tumour cell growth, NCI panel, 48 h
IGROV1 ovarian = tested on: IGROV1 ovarian
M14 melanoma = tested on: M14 melanoma
ACHN renal = tested on: ACHN renal
CCRF-CEM leukemia = tested on: CCRF-CEM leukemia
KM12 colon = tested on: KM12 colon
PC-3 prostate = tested on: PC-3 prostate
T-47D breast = tested on: T-47D breast
CAKI-1 renal = tested on: CAKI-1 renal
OVCAR-4 ovarian = tested on: OVCAR-4 ovarian
K-562 leukemia = tested on: K-562 leukemia
SW-620 colon = tested on: SW-620 colon
SR leukemia = tested on: SR leukemia

Compound	TGI (IGROV1 ovarian)	TGI (M14 melanoma)	TGI (ACHN renal)	TGI (CCRF-CEM leukemia)	TGI (KM12 colon)	TGI (PC-3 prostate)	TGI (T-47D breast)	TGI (CAKI-1 renal)	TGI (OVCAR-4 ovarian)	TGI (K-562 leukemia)	TGI (SW-620 colon)	TGI (SR leukemia)	GI50 (T-47D breast)
CC(C)CCC[C@@H](C)[C@H]1CCC2C3CC=C4C[C@@H](Oc5c6ccccc6nc6ccccc56)CCC4C3CCC21 (some centres not stated)	> 50 µM	> 50 µM	> 50 µM	> 50 µM	> 50 µM	> 50 µM	> 50 µM	> 50 µM	> 50 µM	> 50 µM	> 50 µM	–	–
COc1ccc(O[C@H](COCc2ccccc2)C[C@@H]2COC(C)(C)O2)cc1	> 100 µM	> 100 µM	> 100 µM	> 100 µM	> 100 µM	> 100 µM	–	> 100 µM	> 100 µM	> 100 µM	> 100 µM	> 100 µM	–
COC(=O)/C=C(\C)C(=O)N(C)c1ccccc1I	–	> 100 µM	> 100 µM	> 100 µM	> 100 µM	> 100 µM	> 100 µM	> 100 µM	> 100 µM	> 100 µM	> 100 µM	> 100 µM	–
CCCCc1c(C(=O)OC(C)(C)C)cc(C#Cc2cc(C(=O)OC(C)(C)C)c(CCCC)c(C(=O)OC(C)(C)C)c2)cc1C(=O)OC(C)(C)C	> 100 µM	> 100 µM	> 100 µM	–	> 100 µM	> 100 µM	> 100 µM	> 100 µM	> 100 µM	–	–	–	–
CCC1C(c2cccc(OC)c2O)c2cc3c(cc2OC1N1CCCC1)OCO3 (configuration not stated)	45.3 µM	23.9 µM	84.3 µM	46.7 µM	50.8 µM	89.2 µM	68.7 µM	–	–	38.7 µM	58.8 µM	50.4 µM	–
COc1ccc(N2C(=Nc3ccccc3)SC(=N/S(=O)(=O)c3ccccc3)/C2=N\S(=O)(=O)c2ccccc2)cc1	27.3 µM	> 100 µM	61.1 µM	46 µM	88.7 µM	42.3 µM	20.1 µM	–	–	44.1 µM	> 100 µM	40.4 µM	–
CCOC(=O)Nc1c(C#N)[n+]([O-])c2cc(Cl)c(Cl)cc2[n+]1[O-]	28.6 µM	38.9 µM	–	22.9 µM	64.8 µM	31.8 µM	54.2 µM	40.4 µM	29.4 µM	39.9 µM	56.5 µM	24.3 µM	–
CN(C)c1nc(NC23CC4CC(CC(C4)C2)C3)nc(N(C)C)n1	–	> 57.9 µM	> 100 µM	28.7 µM	> 100 µM	> 42.2 µM	49.6 µM	> 100 µM	> 100 µM	7.84 µM	> 56.2 µM	53.9 µM	–
Cn1c(C(C#N)c2nc(Cl)ncc2Br)nc2ccccc21 (configuration not stated)	> 100 µM	> 100 µM	> 100 µM	–	> 100 µM	–	> 100 µM	> 100 µM	> 100 µM	–	> 100 µM	–	–
CCOC(=O)Oc1cc2c(c(OC)c1OC)-c1ccc(SC)c(=O)cc1C(NC(=O)C(F)(F)F)CC2 (configuration not stated)	0.149 µM	38.8 µM	52.8 µM	4.92 µM	–	> 100 µM	81 µM	0.0928 µM	–	> 100 µM	> 100 µM	5.4 µM and 15.6 µM	21.4 µM
